{"source": "patent US20070122458A1", "about": "“Nicotine and Chocolate Compositions” (priority 2001, published 2007)", "origin": "cited, not measured here", "key": {"[1]": {"settings": "smoker, cigarette smoking"}, "[2]": {"settings": "intravenous infusion; smokers and non-smokers similarly"}, "[3]": {"settings": "nasal solution insufflation; smokers and non-smokers; not \"sweets\""}}, "data": [{"smiles": "CN1CCCC1c1cccnc1", "note": "(stereo not drawn) [nicotine]", "values": [{"measurement": "time to peak blood levels of nicotine after starting smoking", "setting": "[1]", "result": "5 to 10", "unit": "min"}, {"measurement": "increase of the resting metabolic rate", "setting": "[2]", "result": 6.5, "unit": "%"}, {"measurement": "perceived taste intensity of dietary \"fat\"", "setting": "[3]", "result": "significantly reduced"}]}]}
